{
  "source": "patent US11123354B2",
  "about": "“Method for the treatment of osteoarthritis” (ABIOGEN PHARMA S.P.A., priority 2016, dated 2021)",
  "key": {"OA rats (MIA model)": {"system": "OA rats (MIA model)", "assay": "Difference in edema size between right and left knees, MIA-induced OA rats, weekly intra-articular treatment", "type": "in vivo, Sprague Dawley rats", "conditions": "4 weekly i.a. administrations", "excerpt": "(§1) As an experimental model of OA induction, one involving the intra-articular administration of MIA (monosodium iodoacetate) was used.\nThe IA injection of MIA creates a model of acute inflammation that allows the study of cartilage degradation and joint pain.\n(§2) The rats were anesthetized by a gaseous mixture of isoflurane and oxygen, and maintained in a supine position. Once the infrapatellar ligament was identified by touch, a single intra-articular injection of monosodium iodoacetate (MIA) was performed in the right knee, after having shaved the skin of the area, while keeping the joint slightly flexed. The amount of MIA injected was equal to 1 mg dissolved in 50 μl of saline solution, having a pH of about 4.5, as measured just before administration. The joint of the left knee was instead injected with 50 μl of saline solution alone, and this represented the internal control.\n(§3) The treatment involved 4 weekly administrations of sodium chlodronate, followed by one week of follow-up.\n(§4) The study included 8 treatment groups, each consisting of 10 male Sprague Dawley rats, specifically five treatment groups consisting of OA rats, on which the chlodronate doses of 2, 10, 20, 30, and 40 mg/ml, corresponding to 0.1, 0.5, 1, 1.5, and 2 mg/rat, were tested, and the remaining three groups represented by untreated OA rats, operated but untreated Sham rats, and rats administered only with placebo at pH 4.5.\n(§5) During the treatment period, the animals were regularly checked in relation to the increase in body mass, food intake, and general health conditions. Clinical and hematological analyses were performed at the end of the study. The difference between the size of the edema in the two inflamed knees for all the observation groups, the final serum concentration of CTX-I (C-telopeptide of type I collagen), as a marker of bone turnover, and the final serum concentration of CTX-II (C-telopeptide of type II collagen), as a marker of cartilage turnover were investigated.\nThe measurement of the difference in size of the right and left knee edema (indicated with D and expressed in mm) was performed on anesthetized rats, by using a digital caliper (Digi-max slide caliper W/LCD readout Sigma Aldrich)."}, "[1]": {"system": "CTX-I (C-telopeptide of type I collagen)", "assay": "CTX-I final serum concentration, MIA-induced OA rats, weekly treatment", "type": "in vivo, Sprague Dawley rats", "experimental": "as §1, §2, §3, §4, §5\nConsidering that CTX-I (C-telopeptide of type I collagen) is a bone turnover marker and its concentration levels are proportional to the osteoclastic activity, the measurement of CTX-I final serum concentration value is a measure of the treatment efficacy."}, "[2]": {"system": "CTX-II (C-telopeptide of type II collagen)", "assay": "CTX-II final serum concentration, MIA-induced OA rats, weekly treatment", "type": "in vivo, Sprague Dawley rats", "experimental": "as §1, §2, §3, §4, §5\nConsidering that CTX-II (C-telopeptide of type II collagen) is a cartilage turnover marker and its concentration levels are proportional to the […], the measurement of CTX-II final serum concentration value is a measure of the treatment efficacy."}, "[3]": {"system": "OA rats (bilateral anterior cruciate ligament surgical resection)", "assay": "Histopathological evaluation (modified Mankin score), OA rats by anterior cruciate ligament resection, monthly treatment", "type": "in vivo, Sprague Dawley rats", "conditions": "4 monthly i.a. doses, scale 0 (normal) to 15 (seriously damaged)", "experimental": "In this study, the efficacy of a treatment performed by monthly intra-articular administration of sodium chlodronate on male “Sprague Dawley” rats affected by OA was evaluated. The treatment involved 4 monthly doses of sodium chlodronate, followed by one month of follow-up.\nIn the experimental model, OA was induced in rats by bilateral anterior cruciate ligament surgical resection in both hind limbs.\nA volume of 50 μL of treatment solution, having a pH of about 4.5, as measured just before administration, was injected into the intra-articular cavity of each knee.\nThe study included 5 treatment groups, each consisting of 10 male rats, specifically two treatment groups consisting of OA rats, on which chlodronate doses of 8 and 12 mg/ml, corresponding to 0.4 and 0.6 mg/rat, were tested, and remaining three groups represented by untreated OA rats, operated but untreated Sham rats, and rats receiving placebo alone.\nDuring the treatment period, the animals were regularly checked in relation to the increase in body mass, food intake and general health conditions. Clinical and hematological analyses were performed at the end of the study. […]"}, "[4]": {"assay": "pH, osmolality and density of unitary dosage form aqueous solutions", "type": "physicochemical", "conditions": "aqueous solution", "experimental": "Osmolality values were determined according to USP, chapter […] under the heading “Osmolality and Osmolarity”.\nCertain compositions of the invention were prepared in unitary dosage form, in the form of an aqueous solution, for weekly, biweekly or monthly administration, comprising sodium chlodronate in tetrahydrate form, whose quali-quantitative compositions and pH, osmolality, and density values, are shown in Table 8 below.\nAs it is apparent from the table, all the compositions prepared had particularly high osmolality values. Osmolalities were determined by GONOTEC Osmometer, OSMOMAT 3000-D model, serial number 3000150264 according to USP, chapter 785 under the title “Osmolality and Osmolarity”."}, "[5]": {"system": "patients with osteoarthritis of the knee", "conditions": "20 patients, IA 0.9 mg on days 1, 3, 7, 10, 14 and 21; cited from earlier work"}, "[6]": {"conditions": "5.00 mg sodium chlodronate per unitary dosage form (1 ml)"}, "[7]": {"conditions": "10.00 mg sodium chlodronate per unitary dosage form (1 ml)"}, "[8]": {"conditions": "20.00 mg sodium chlodronate per unitary dosage form (1 ml)"}, "[9]": {"conditions": "30.00 mg sodium chlodronate per unitary dosage form (1 ml)"}, "[10]": {"conditions": "40.00 mg sodium chlodronate per unitary dosage form (1 ml)"}},
  "data": [
    {"compound": "O=P([O-])(O)C(Cl)(Cl)P(=O)([O-])O.[Na+].[Na+]", "note": "[Sodium Chlodronate, sodium chlodronate]", "values": [
      {"measurement": "D, Mean Value (mm) ± SEM (difference in size of right and left knee edema)", "setting": "OA rats (MIA model); 2 mg/ml (0.1 mg/rat)", "result": "0.37 ± 0.067", "unit": "mm"},
      {"measurement": "D, Mean Value (mm) ± SEM (difference in size of right and left knee edema)", "setting": "OA rats (MIA model); 10 mg/ml (0.5 mg/rat)", "result": "0.28 ± 0.063", "unit": "mm"},
      {"measurement": "D, Mean Value (mm) ± SEM (difference in size of right and left knee edema)", "setting": "OA rats (MIA model); 20 mg/ml (1 mg/rat)", "result": "0.27 ± 0.047", "unit": "mm"},
      {"measurement": "D, Mean Value (mm) ± SEM (difference in size of right and left knee edema)", "setting": "OA rats (MIA model); 30 mg/ml (1.5 mg/rat)", "result": "0.11 ± 0.043", "unit": "mm"},
      {"measurement": "D, Mean Value (mm) ± SEM (difference in size of right and left knee edema)", "setting": "OA rats (MIA model); 40 mg/ml (2 mg/rat)", "result": "0.28 ± 0.033", "unit": "mm"},
      {"measurement": "CTX-I Value", "setting": "[1]; 2 mg/mL weekly i.a.", "result": 4.77, "unit": "pg/mL"},
      {"measurement": "CTX-I Value", "setting": "[1]; 10 mg/mL weekly i.a.", "result": 4.87, "unit": "pg/mL"},
      {"measurement": "CTX-I Value", "setting": "[1]; 20 mg/mL weekly i.a.", "result": 4.6, "unit": "pg/mL"},
      {"measurement": "CTX-I Value", "setting": "[1]; 30 mg/mL weekly i.a.", "result": 4.36, "unit": "pg/mL"},
      {"measurement": "CTX-I Value", "setting": "[1]; 40 mg/mL weekly i.a.", "result": 4.16, "unit": "pg/mL"},
      {"measurement": "CTX-II Value", "setting": "[2]; 2 mg/mL weekly i.a.", "result": 6.84, "unit": "pg/mL"},
      {"measurement": "CTX-II Value", "setting": "[2]; 10 mg/mL weekly i.a.", "result": 6.48, "unit": "pg/mL"},
      {"measurement": "CTX-II Value", "setting": "[2]; 20 mg/mL weekly i.a.", "result": 5.93, "unit": "pg/mL"},
      {"measurement": "CTX-II Value", "setting": "[2]; 30 mg/mL weekly i.a.", "result": 5.67, "unit": "pg/mL"},
      {"measurement": "CTX-II Value", "setting": "[2]; 40 mg/mL weekly i.a.", "result": 5.73, "unit": "pg/mL"},
      {"measurement": "Mankin Index Mean Value ± SEM", "setting": "[3]; 8 mg/ml (0.4 mg/rat)", "result": "4.9 ± 0.458"},
      {"measurement": "Mankin Index Mean Value ± SEM", "setting": "[3]; 12 mg/ml (0.6 mg/rat)", "result": "2.6 ± 0.618"},
      {"measurement": "Density", "setting": "[4]; [6]", "result": 1.014, "unit": "g/mL"},
      {"measurement": "Osmolality (mOsm/Kg)", "setting": "[4]; [6]", "result": 395, "unit": "mOsm/Kg"},
      {"measurement": "pH", "setting": "[4]; [6]", "result": 4.6},
      {"measurement": "Density", "setting": "[4]; [7]", "result": 1.016, "unit": "g/mL"},
      {"measurement": "Osmolality (mOsm/Kg)", "setting": "[4]; [7]", "result": 400, "unit": "mOsm/Kg"},
      {"measurement": "pH", "setting": "[4]; [7]", "result": 4.5},
      {"measurement": "Density", "setting": "[4]; [8]", "result": 1.021, "unit": "g/mL"},
      {"measurement": "Osmolality (mOsm/Kg)", "setting": "[4]; [8]", "result": 388, "unit": "mOsm/Kg"},
      {"measurement": "pH", "setting": "[4]; [8]", "result": 4.4},
      {"measurement": "Density", "setting": "[4]; [9]", "result": 1.027, "unit": "g/mL"},
      {"measurement": "Osmolality (mOsm/Kg)", "setting": "[4]; [9]", "result": 408, "unit": "mOsm/Kg"},
      {"measurement": "pH", "setting": "[4]; [9]", "result": 4.4},
      {"measurement": "Density", "setting": "[4]; [10]", "result": 1.032, "unit": "g/mL"},
      {"measurement": "Osmolality (mOsm/Kg)", "setting": "[4]; [10]", "result": 413, "unit": "mOsm/Kg"},
      {"measurement": "pH", "setting": "[4]; [10]", "result": 4.5},
      {"measurement": "effect on pain symptoms (spontaneous pain and pain in movement)", "setting": "[5]", "result": "marked positive effect"}
    ]}
  ]
}
